# US7135497B1, “Treating neural conditions resulting from spinal cord contusions and other causes” (New York Medical College, priority 2000, dated 2006)
# Legend:
# [1] = test system: spinal cord contused rats; assay: Locomotor recovery (BBB scale) after weight-drop spinal cord contusion at T10; type: in vivo, rat
# Method: (§1) Adult female Wistar rats (˜245 g) were obtained from Charles River Breeding Laboratories and housed in a temperature-regulated (23° C.) animal facility. The spinal cords were contused with a weight drop apparatus similar to the NYU impactor (See also Basso, D. M., M. S. Beattie, and I. C. Breslmahan, 1996, Graded histological and locomotor outcomes after spinal cord contusion using the NYU weight-drop device versus transection, Exp. Neurol. 139:244–256, incorporated by reference) at the level of T10. Prior to surgery, the rats were anesthetized with an injection of pentobarbital sodium (60 mg/kg ip) and laminectomy was performed aseptically at T9–T10 to expose the spinal cord. The spinous processes at T8 and T11 were fixed with clamps to prevent movement during contusion. Body temperature was maintained at 37° C. during the period of anesthesia with a temperature-controlled heating pad and rectal thermometer. Graded injuries were produced in groups of rats by dropping a 10 g rod with a tip diameter of 2.5 mm from heights of either 6.25, 12.5, 25 or 50 mm as in the experiments of Basso identified above. Following contusion, each incision was closed with woundclips. An additional four groups of identically contused rats received clenbuterol received (from Chinoin, Mexico City) that was administered by adding it to the drinking water at a dose of 9 mg/L. This concentration delivers clenbuterol at a rate of 1.6 mg/kg body wt./day. The animals had access to water and food in their cages immediately after recovery from surgery and throughout the experiment. Water consumption is not believed to be affected by the addition of clenbuterol. Oral dosing is particularly effective over prolonged periods because clenbuterol readily enters the circulation via the gut, has high receptor affinity and a relatively long half-life. In all, 8 treatment groups (Table I) were examined. […]
# Recovery of locomotor function was determined with BBB scale as previously described. […] For the three days following contusion and at one week intervals thereafter for a total of six weeks, each rat was scored for locomotor function according to the BBB scale. […] For several rats in treatment groups receiving 50 mm weight drops, treatment conditions became known and were scored by one observer. […]
# To confirm that salbutamol, a β2-adrenoceptor agonist, can enhance recovery of locomotor function following spinal cord injury. Groups of untreated and salbutamol-treated rats were evaluated with the 21 point Basso, Beattie and Bresnahan (BBB) scale (FIG. 9) following spinal cord contusion with a weight-drop device (10 g, 25 mm drop), Salbutamol was administered via subcutaneously implanted osmotic minipumps (Alzet) that delivered 1 mg/kg body weight/day during the 28 day recovery period. […]
# [2] = test system: spinal cord contused rats; assay: Spinal cord histomorphometry: % spared tissue at the contusion center; type: in vivo, rat; conditions: 6 weeks, 9 mg/L in drinking water
# Method: as §1, with “examined. All of the procedures involving vertebrate animals were approved by the Institutional Animal Care and Use Committee of New York Medical College.” for “examined.”
# [3] = test system: motor neuron degeneration (Mnd) mice; assay: Behavioral tests of walking and hindlimb splaying (Messer and Flaherty), number of abnormal trials; type: in vivo, mouse; conditions: of 50 trials per week, from 31 to 37 weeks of age, clenbuterol-treated n=5, P<0.01 versus untreated
# Method: Behavioral tests developed by Messer and Flaherty in their original description of the Mnd mice were also performed. As described in their publication (J. Neurogenetics 3:345–355, 1986), incorporated by reference, five tests of different aspects of walking and hindlimb splaying are run each week with 10 trials for each test for a total of 50 trials. The mean number of abnormal trials occurring in clenbuterol-treated (n=5) and untreated (n=7) Mnd mice were determined until the mice were 37 weeks of age at the end of the experiment (FIG. 8). Beginning at 31 weeks of age, there is a marked worsening of behavioral scores. […] The frequency of abnormal motoneurons in each mouse was highly correlated with locomotor scores. Clenbuterol reduced the frequency of abnormal motoneurons to 8.3±0.7% (P<0.015) indicating a neurotrophic effect of β2-agonist treatment.
# [4] = test system: motor neuron degeneration (Mnd) mice; assay: Forelimb and hindlimb grip strength in Mnd and WT mice; type: in vivo, mouse; conditions: 9 mg/L in drinking water until 37 weeks of age
# Method: (§2) Forelimb and hindlimb grip strength was measured in groups of Mnd and wild type (WT) mice that were either treated with clenbuterol in the drinking H2O (9 mg/L) until 37 weeks of age or were untreated. Forelimb and hindlimb grip strength was reduced 44–66% in Mnd compared to WT mice (FIG. 6). Clenbuterol caused relative increases in forelimb grip strength that were greater in Mnd (75%) compared to WT (20%, P<0.05, t test) mice. […] These effects of genotype and clenbuterol treatment were paralleled by similar changes in muscle mass. Thus the hindlimb soleus and extensor digitorum longus muscles were reduced 27–32% in Mnd compared to WT mice (FIG. 7). Clenbuterol caused relative increases of 46% and 29% in soleus weight in Mnd and Wt mice, respectively.
# [5] = test system: motor neuron degeneration (Mnd) mice; assay: Motoneuron counts and abnormal eccentric nuclei in the lumbar spinal cord; type: in vivo, mouse
# brain ischemia = conditions: in vivo; cited from earlier work
# [6] = in vivo; cited from earlier work
# interleukin-6 secretion = conditions: cited from earlier work
# [7] = test system: cultured hippocampal neurons; conditions: in vitro; the NGF protected cultured hippocampal neurons from glutamate excitotoxicity; cited from earlier work
# [8] = test system: motor neuron degeneration (Mnd) mice; assay: Hindlimb muscle weight in Mnd and WT mice; type: in vivo, mouse; conditions: 9 mg/L in drinking water
# Method: as §2
smiles,measurement,setting,value
CC(C)(C)NCC(O)c1ccc(O)c(CO)c1 (stereo not shown) [salbutamol],recovery of locomotor function (BBB scale),"[1]; 10 g, 25 mm drop, 1 mg/kg body weight/day by subcutaneous osmotic minipump, 28 days, versus untreated control, P<0.05",significantly greater
CC(C)(C)NCC(O)c1cc(Cl)c(N)c(Cl)c1 (stereo not shown) [clenbuterol],sparing of spinal cord tissue accounted for by treatment,[2]; 12.5 mm weight drop,23%
same,sparing of spinal cord tissue accounted for by treatment,[2]; 25 mm weight drop,33%
same,sparing of spinal cord tissue accounted for by treatment,[2]; 50 mm weight drop,34%
same,mean number of abnormal trials,[3],6.3±1.6
same,increase in hindlimb grip strength,[4]; Mnd mice,29%
same,relative increase in forelimb grip strength,[4]; Mnd mice,75%
same,effect on hindlimb strength,[4]; WT mice,did not significantly affect
same,relative increase in forelimb grip strength,[4]; WT mice,20%
same,motoneuron counts in the lumbar spinal cord,[5],not significantly reduced in Mnd mice or affected by clenbuterol
same,frequency of abnormal motoneurons (abnormal eccentric nuclei),"[5]; clenbuterol-treated, untreated Mnd 12.6±0.9%, WT 2.3±0.2%, P<0.015",8.3±0.7%
same,effect on hippocampal neurons following ischemia,brain ischemia,neuroprotective effects
same,infarct volume due to brain ischemia,brain ischemia,reduced infarct volume
same,blood-brain barrier passage,[6],crosses the blood-brain barrier
same,improvement in final BBB score due to clenbuterol,"[1]; 25 mm weight drop, versus untreated, 6 weeks",9.3 levels
same,increase in BBB score,"[1]; 50 mm weight drop, fourth, fifth and sixth weeks, versus untreated",5.1–5.8 levels
same,mean of the final BBB scores,"[1]; mean ±SE over the four clenbuterol-treated groups (6.25-50 mm weight drops), 6 weeks, 9 mg/L in drinking water, untreated 8.0±2.9, P<0.05",13.2±1.5
same,secretion of IL-6,interleukin-6 secretion,greatly increases secretion of IL-6
same,release of NGF,[7],caused the release of NGF
same,increase in extensor digitorum longus muscle weight,[8]; Mnd mice,21%
same,relative increase in soleus weight,[8]; Mnd mice,46%
same,relative increase in soleus weight,[8]; Wt mice,29%
